In the supplement of paper PMC10307832:

Columns and labels:
Test in all cases: relative viability (nuclei count vs DMSO), 5 days (fraction); higher = more cells survive
SK-MES-1 = tested on: SK-MES-1
Procedure, shortened: (§1)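 Medians of duplicate plates are given as relative viability. That measure is the nuclei count in treated wells divided by the count in vehicle wells. Counts were taken on 4× images of lung cancer cell lines in 1536-well plates, 5 days after pin-tool dosing the day after seeding with one drug alone or a fixed anchor-drug dose plus five library-drug doses (not always all listed) in √10 steps.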

LCLC-97TM1 = tested on: LCLC-97TM1
Procedure, shortened: as §1

NCI-H2087 = tested on: NCI-H2087
Procedure, shortened: as §1

LC-2-ad = tested on: LC-2-ad
Procedure, shortened: as §1

LK-2 = tested on: LK-2
Procedure, shortened: as §1

NCI-H1944 = tested on: NCI-H1944
Procedure, shortened: as §1

ChaGo-K-1 = tested on: ChaGo-K-1
Procedure, shortened: as §1

HCC-78 = tested on: HCC-78
Procedure, shortened: as §1

NCI-H596 = tested on: NCI-H596
Procedure, shortened: as §1

NCI-H322M = tested on: NCI-H322M
Procedure, shortened: as §1

Work on `NC(=O)Nc1cc(-c2cccc(F)c2)sc1C(=O)N[C@H]1CCCNC1` [AZD7762] + CC1(C)CCC(c2ccc(Cl)cc2)=C(CN2CCN(c3ccc(C(=O)NS(=O)(=O)c4ccc(N[C@H](CCN5CCOCC5)CSc5ccccc5)c(S(=O)(=O)C(F)(F)F)c4)cc3)CC2)C1 [Navitoclax] (partner 0.5 µM) yielded a relative viability (SK-MES-1; first compound 0.1 µM) of 1.41, a relative viability (SK-MES-1; first compound 0.3162 µM) of 1.28 and a relative viability (SK-MES-1; first compound 1 µM) of 0.645. For the same compound, the relative viability (LCLC-97TM1; first compound 0.01 µM) was 0.343, the relative viability (LCLC-97TM1; first compound 0.03162 µM) was 0.517 and the relative viability (LCLC-97TM1; first compound 0.1 µM) was 0.51. For the same compound, the relative viability (LCLC-97TM1; first compound 0.3162 µM) was 0.457, the relative viability (LCLC-97TM1; first compound 1 µM) was 0.237 and the relative viability (NCI-H2087; first compound 0.01 µM) was 1.13. The relative viability (NCI-H2087; first compound 0.03162 µM) was 1, the relative viability (NCI-H2087; first compound 0.1 µM) was 1.27 and the relative viability (NCI-H2087; first compound 0.3162 µM) was 1.17. The relative viability (NCI-H2087; first compound 1 µM) was 1.28, the relative viability (LC-2-ad; first compound 0.01 µM) was 0.491 and the relative viability (LC-2-ad; first compound 0.03162 µM) was 0.476. It also gave a relative viability (LC-2-ad; first compound 0.1 µM) of 0.415, a relative viability (LC-2-ad; first compound 0.3162 µM) of 0.414 and a relative viability (LC-2-ad; first compound 1 µM) of 0.309. For the same compound, the relative viability (LK-2; first compound 0.01 µM) was 0.849, the relative viability (LK-2; first compound 0.03162 µM) was 0.822 and the relative viability (LK-2; first compound 0.1 µM) was 0.838. The relative viability (LK-2; first compound 0.3162 µM) was 0.756, the relative viability (LK-2; first compound 1 µM) was 0.607 and the relative viability (NCI-H1944; first compound 0.01 µM) was 1.06. It also gave a relative viability (NCI-H1944; first compound 0.03162 µM) of 1.14, a relative viability (NCI-H1944; first compound 0.1 µM) of 1.1 and a relative viability (NCI-H1944; first compound 0.3162 µM) of 1.12. It also gave a relative viability (NCI-H1944; first compound 1 µM) of 0.816, a relative viability (ChaGo-K-1; first compound 0.01 µM) of 0.934 and a relative viability (ChaGo-K-1; first compound 0.03162 µM) of 1. It also gave a relative viability (ChaGo-K-1; first compound 0.1 µM) of 0.913, a relative viability (ChaGo-K-1; first compound 0.3162 µM) of 0.813 and a relative viability (ChaGo-K-1; first compound 1 µM) of 0.664. For the same compound, the relative viability (HCC-78; first compound 0.01 µM) was 0.822, the relative viability (HCC-78; first compound 0.03162 µM) was 0.807 and the relative viability (HCC-78; first compound 0.1 µM) was 0.792. The relative viability (HCC-78; first compound 0.3162 µM) was 0.714, the relative viability (HCC-78; first compound 1 µM) was 0.401 and the relative viability (NCI-H596; first compound 0.01 µM) was 1.14. For the same compound, the relative viability (NCI-H596; first compound 0.03162 µM) was 0.936, the relative viability (NCI-H596; first compound 0.1 µM) was 1.06 and the relative viability (NCI-H596; first compound 0.3162 µM) was 0.912. The relative viability (NCI-H596; first compound 1 µM) was 0.698, the relative viability (NCI-H322M; first compound 0.01 µM) was 1.14 and the relative viability (NCI-H322M; first compound 0.03162 µM) was 1.33. For the same compound, the relative viability (NCI-H322M; first compound 0.1 µM) was 1.29, the relative viability (NCI-H322M; first compound 0.3162 µM) was 1.22 and the relative viability (NCI-H322M; first compound 1 µM) was 1.03.
